Measurements published in ChEMBL document CHEMBL4340520, “Hederagenin amide derivatives as potential antiproliferative agents” (Eur J Med Chem, 2019).
Active and inactive are the calls of the source. The rule behind the calls is not given here.

Tests used:
NIH3T3 = experiment: Cytotoxicity against mouse NIH/3T3 cells assessed as reduction in cell viability after 96 hrs by SRB assay; assay type: cell-based; settings: NIH3T3, 96 h
FaDu = experiment: Cytotoxicity against human FADU cells assessed as reduction in cell viability after 96 hrs by SRB assay; assay type: functional, cell-based
MCF7 = experiment: Cytotoxicity against human MCF7 cells assessed as reduction in cell viability after 96 hrs by SRB assay; assay type: functional, cell-based; settings: MCF7, 96 h
A2780 [1] = experiment: Cytotoxicity against human A2780 cells assessed as reduction in cell viability after 96 hrs by SRB assay; assay type: functional, cell-based; settings: A2780, 96 h
SW-1736 = experiment: Cytotoxicity against human SW1736 cells assessed as reduction in cell viability after 96 hrs by SRB assay; assay type: functional, cell-based; settings: SW-1736, 96 h
HT-29 [2] = experiment: Cytotoxicity against human HT-29 cells assessed as reduction in cell viability after 96 hrs by SRB assay; assay type: functional, cell-based; settings: HT-29, 96 h
HT-29 [3] = experiment: Potency index, ratio of betulinic acid EC50 to test compound EC50 for cytotoxicity against human HT-29 cells; assay type: functional
A2780 [4] = experiment: Cytotoxicity against human A2780 cells assessed as cell membrane permeability at 6 uM after 24 hrs by acridine orange/propidium iodide staining based fluorescence microscopic method; assay type: functional
HT-29 [5] = experiment: Potency index, ratio of hederagenin EC50 to test compound EC50 for cytotoxicity against human HT-29 cells; assay type: functional
A2780 [6] = experiment: Induction of apoptosis in human A2780 cells assessed as increase in secondary necrotic cells at 6 uM after 24 hrs by Annexin V-FITC/propidium iodide staining-based flow cytometric analysis; assay type: functional, cell-based
HT-29 [7] = experiment: Cytotoxicity against human HT-29 cells assessed as cell membrane permeability at 2.5 to 5 uM after 24 hrs by acridine orange/propidium iodide staining based fluorescence microscopic method; assay type: functional
A2780 [8] = experiment: Potency index, ratio of betulinic acid EC50 to test compound EC50 for cytotoxicity against human A2780 cells; assay type: functional
A2780 [9] = experiment: Potency index, ratio of acetylated hederagenin EC50 to test compound EC50 for cytotoxicity against human A2780 cells; assay type: functional
A2780 [10] = experiment: Potency index, ratio of hederagenin EC50 to test compound EC50 for cytotoxicity against human A2780 cells; assay type: functional

Structure (SMILES)	EC50 (NIH3T3) [µM]	EC50 (FaDu) [µM]	EC50 (MCF7) [µM]	EC50 (A2780 [1]) [µM]	EC50 (SW-1736) [µM]	EC50 (HT-29 [2]) [µM]	Ratio EC50 (HT-29 [3])	Activity (A2780 [4])	Ratio EC50 (HT-29 [5])	Activity (A2780 [6])	Activity (HT-29 [7])	Ratio EC50 (A2780 [8])	Ratio EC50 (A2780 [9])	Ratio EC50 (A2780 [10])
CC(=O)OC[C@@]1(C)[C@@H]2CC[C@]3(C)[C@H](CC=C4[C@@H]5CC(C)(C)CC[C@]5(C(=O)N5CCNCC5)CC[C@]43C)[C@@]2(C)CC[C@@H]1OC(C)=O	10.8	5.3	6.1	1.9	9	6.7								
COC(=O)CNC(=O)[C@]12CCC(C)(C)C[C@H]1C1=CC[C@@H]3[C@@]4(C)CC[C@H](O)[C@@](C)(CO)[C@@H]4CC[C@@]3(C)[C@]1(C)CC2	> 30	> 30		> 30	> 30	> 30								
COC(=O)CNC(=O)[C@]12CCC(C)(C)C[C@H]1C1=CC[C@@H]3[C@@]4(C)CC[C@H](OC(C)=O)[C@@](C)(COC(C)=O)[C@@H]4CC[C@@]3(C)[C@]1(C)CC2	8.4	3.1	4.5	1.7	4.8	3.7								
CC(=O)OC[C@@]1(C)[C@@H]2CC[C@]3(C)[C@H](CC=C4[C@@H]5CC(C)(C)CC[C@]5(C(=O)NCCCCN)CC[C@]43C)[C@@]2(C)CC[C@@H]1OC(C)=O	> 30	> 30	> 30	> 30	> 30	> 30								
COC(=O)C(NC(=O)[C@]12CCC(C)(C)C[C@H]1C1=CC[C@@H]3[C@@]4(C)CC[C@H](OC(C)=O)[C@@](C)(COC(C)=O)[C@@H]4CC[C@@]3(C)[C@]1(C)CC2)c1ccccc1 (some centres not stated)	12.9	4.6	5.7	3.3	6.3	5.1								
CC1(C)CC[C@]2(C(=O)N3CCCCC3)CC[C@]3(C)C(=CC[C@@H]4[C@@]5(C)CC[C@H](O)[C@@](C)(CO)[C@@H]5CC[C@]43C)[C@@H]2C1	18.5	20.8	7.8	18.2	19.2	18.3								
COC(=O)C(NC(=O)[C@]12CCC(C)(C)C[C@H]1C1=CC[C@@H]3[C@@]4(C)CC[C@H](O)[C@@](C)(CO)[C@@H]4CC[C@@]3(C)[C@]1(C)CC2)c1ccccc1 (some centres not stated)	> 30	> 30		> 30	> 30	> 30								
C=C(C)[C@@H]1CC[C@]2(C(=O)O)CC[C@]3(C)[C@H](CC[C@@H]4[C@@]5(C)CC[C@H](O)C(C)(C)[C@@H]5CC[C@]43C)[C@@H]12 [BETULINIC ACID]			12											
CC(=O)OC[C@@]1(C)[C@@H]2CC[C@]3(C)[C@H](CC=C4[C@@H]5CC(C)(C)CC[C@]5(C(=O)NCCN5CCCCC5)CC[C@]43C)[C@@]2(C)CC[C@@H]1OC(C)=O	3.2	4.3	3.2	2.1	4.7	2.1								
CC1(C)CC[C@]2(C(=O)N3CCCC3)CC[C@]3(C)C(=CC[C@@H]4[C@@]5(C)CC[C@H](O)[C@@](C)(CO)[C@@H]5CC[C@]43C)[C@@H]2C1	2.2	2.8		3	3.6	1.2	15	Active	30	Active	Active			
CC1(C)CC[C@]2(C(=O)NCCCCN)CC[C@]3(C)C(=CC[C@@H]4[C@@]5(C)CC[C@H](O)[C@@](C)(CO)[C@@H]5CC[C@]43C)[C@@H]2C1	7	> 30	> 30	9.7	12.2	6.1								
CC1(C)CC[C@]2(C(=O)N3CCNCC3)CC[C@]3(C)C(=CC[C@@H]4[C@@]5(C)CC[C@H](O)[C@@](C)(CO)[C@@H]5CC[C@]43C)[C@@H]2C1	17.4	> 30		19.4	> 30	22.5								
CC(=O)OC[C@@]1(C)[C@@H]2CC[C@]3(C)[C@H](CC=C4[C@@H]5CC(C)(C)CC[C@]5(C(=O)NCCN5CCOCC5)CC[C@]43C)[C@@]2(C)CC[C@@H]1OC(C)=O	7.6	3.3	3.8	1.2	3.9	2.8								
CC(=O)OC[C@@]1(C)[C@@H]2CC[C@]3(C)[C@H](CC=C4[C@@H]5CC(C)(C)CC[C@]5(C(=O)N5CCCCC5)CC[C@]43C)[C@@]2(C)CC[C@@H]1OC(C)=O	15.2	5.5	6.2	2.8	7.1	5.7								
CC(=O)OC[C@@]1(C)[C@@H]2CC[C@]3(C)[C@H](CC=C4[C@@H]5CC(C)(C)CC[C@]5(C(=O)NCc5cn(Cc6ccccc6Br)nn5)CC[C@]43C)[C@@]2(C)CC[C@@H]1OC(C)=O	3.4	2.5	3	1.7	2.3	1.9								
CC1(C)CC[C@]2(C(=O)O)CC[C@]3(C)C(=CC[C@@H]4[C@@]5(C)CC[C@H](O)[C@@](C)(CO)[C@@H]5CC[C@]43C)[C@@H]2C1 [HEDERAGENIN]	> 30	> 30	> 30	> 30	> 30	> 30								
CC(=O)OC[C@@]1(C)[C@@H]2CC[C@]3(C)[C@H](CC=C4[C@@H]5CC(C)(C)CC[C@]5(C(=O)O)CC[C@]43C)[C@@]2(C)CC[C@@H]1OC(C)=O	9.6	15.4	9.8	11.9	17.7	19								
CC(=O)OC[C@@]1(C)[C@@H]2CC[C@]3(C)[C@H](CC=C4[C@@H]5CC(C)(C)CC[C@]5(C(=O)NCCc5ccccn5)CC[C@]43C)[C@@]2(C)CC[C@@H]1OC(C)=O	7.1	2.8	3.5	1.5	3.4	3.3								
CC(=O)OC[C@@]1(C)[C@@H]2CC[C@]3(C)[C@H](CC=C4[C@@H]5CC(C)(C)CC[C@]5(C(=O)NCc5cn(Cc6ccccc6Cl)nn5)CC[C@]43C)[C@@]2(C)CC[C@@H]1OC(C)=O	3.6	2.2	2.6	1.7	1.8	1.7								
CC(=O)OC[C@@]1(C)[C@@H]2CC[C@]3(C)[C@H](CC=C4[C@@H]5CC(C)(C)CC[C@]5(C(=O)NCc5cn(Cc6ccccc6[N+](=O)[O-])nn5)CC[C@]43C)[C@@]2(C)CC[C@@H]1OC(C)=O	2.1	2.8	2.7	1.6	3.8	1.9								
CC(=O)OC[C@@]1(C)[C@@H]2CC[C@]3(C)[C@H](CC=C4[C@@H]5CC(C)(C)CC[C@]5(C(=O)NCc5cn(Cc6ccccc6F)nn5)CC[C@]43C)[C@@]2(C)CC[C@@H]1OC(C)=O	6.9	2.8	2.8	1.3	4.7	3								
CC(=O)OC[C@@]1(C)[C@@H]2CC[C@]3(C)[C@H](CC=C4[C@@H]5CC(C)(C)CC[C@]5(C(=O)N5CCCC5)CC[C@]43C)[C@@]2(C)CC[C@@H]1OC(C)=O	9.6	1.6	2.5	0.4	1.7	1.8						32	29	70
CC(=O)OC[C@@]1(C)[C@@H]2CC[C@]3(C)[C@H](CC=C4[C@@H]5CC(C)(C)CC[C@]5(C(=O)NCCN5CCCC5)CC[C@]43C)[C@@]2(C)CC[C@@H]1OC(C)=O	2.2	4	2.6	1.9	3.6	1.5								
